Article PMC9898996 (Bioorganic & medicinal chemistry, 2022)
One block for each compound: values may come before it.

What was measured:
[1] = target: T1, human D2 receptor (Homo sapiens, UniProt P14416)
[2] = target: rat D2L receptor (Rattus norvegicus, UniProt P61169); assay type: binding
[3] = target: α-syn (Homo sapiens, UniProt P37840); test: ThT assay of α-syn aggregation induced by seeding with 0.5% PFFs; assay type: biochemical; conditions: 1.25 mg/mL α-syn + 0.5% PFFs, 30D without shaking, drug 172.9 μM
[4] = test system: PC12 cells; test: MTT viability of PC12 cells treated with α-syn seeded samples; assay type: cell-based; conditions: samples collected at 0D; drug 20 μM, 24 h
[5] = target: T1, human D2 receptor; conditions: [35S]GTPγS, D2 receptors

Sequence of rat D2L receptor (P61169 whole entry): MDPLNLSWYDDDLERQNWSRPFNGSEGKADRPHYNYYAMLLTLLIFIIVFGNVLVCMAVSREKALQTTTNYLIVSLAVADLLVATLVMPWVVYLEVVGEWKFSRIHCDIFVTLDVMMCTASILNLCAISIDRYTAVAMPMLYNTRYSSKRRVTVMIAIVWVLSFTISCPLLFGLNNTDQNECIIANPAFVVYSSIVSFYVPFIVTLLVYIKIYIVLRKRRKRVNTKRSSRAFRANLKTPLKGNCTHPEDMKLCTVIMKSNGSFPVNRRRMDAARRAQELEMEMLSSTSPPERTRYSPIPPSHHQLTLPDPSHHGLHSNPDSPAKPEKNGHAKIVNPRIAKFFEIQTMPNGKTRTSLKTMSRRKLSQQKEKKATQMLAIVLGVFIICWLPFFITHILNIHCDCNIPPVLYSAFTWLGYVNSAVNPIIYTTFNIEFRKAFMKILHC
T1 sequence (P14416 whole entry): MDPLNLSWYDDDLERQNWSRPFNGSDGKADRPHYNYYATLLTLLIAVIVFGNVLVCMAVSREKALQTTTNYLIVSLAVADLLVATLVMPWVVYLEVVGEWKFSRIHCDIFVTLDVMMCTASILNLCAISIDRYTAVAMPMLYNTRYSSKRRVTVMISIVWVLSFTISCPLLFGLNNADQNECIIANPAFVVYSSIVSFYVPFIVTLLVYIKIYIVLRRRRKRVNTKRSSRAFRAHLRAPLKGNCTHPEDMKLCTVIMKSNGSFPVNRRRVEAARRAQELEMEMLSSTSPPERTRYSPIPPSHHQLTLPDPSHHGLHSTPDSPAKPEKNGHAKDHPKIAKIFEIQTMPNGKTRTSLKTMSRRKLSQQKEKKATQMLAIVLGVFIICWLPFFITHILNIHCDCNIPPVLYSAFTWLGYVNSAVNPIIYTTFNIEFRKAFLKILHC

SMILES: CCCN(CCC)C1CCc2c(O)cccc2C1 (single isomer, unassigned; (-)) [(−)-5-OH-DPAT, 5-OH-DPAT]
Emax [1]: 80 ± 4%

SMILES: CCCN(CC(=O)N1CCN(C(=O)CN(CCC)[C@H]2CCc3c(O)cccc3C2)CC1)[C@H]1CCc2c(O)cccc2C1 [Compound D-380, (s)-1,1’-(piperazine-1,4-diyl)bis(2-(((s)-5-hydroxy-1,2,3,4-tetrahydronaphthalen-2-yl)(propyl)amino)ethanone)]
Activity at DA receptors (binding, in words) ([2]; D2/D3 receptor binding): little to no activity | Inhibition of [3H]spiroperidol binding, D2L ([2]; at 100 μM, cloned rat D2L in HEK-293 cells): No Inhibition at 100 μM

SMILES: CCCN(CCc1ccc(CCN(CCC)[C@H]2CCc3c(O)cccc3C2)cc1)[C@H]1CCc2c(O)cccc2C1 [Compound D-382, (6s,6’s)-6,6’-(2,2’-(1,4-phenylene)bis(ethane-2,1-diyl))bis(propylazanediyl)bis(5,6,7,8-tetrahydronaphthalen-1-ol)]
Increase in affinity for D2 receptors compared to D-381 ([2]; binding, D2 receptors): greater than threefold increase

SMILES: Br.Br.CCCN(CCc1cc(O)c(CCN(CCC)[C@H]2CCc3c(O)cccc3C2)cc1O)[C@H]1CCc2c(O)cccc2C1 [Compound D-666, 2,5-Bis(2-(((S)-5-hydroxy-1,2,3,4-tetrahydronaphthalen-2-yl)(propyl)amino)ethyl)benzene-1,4-diol]
Inhibition of α-syn aggregation (ThT signal) [3]: inhibited the aggregation completely | Toxicity of compound by itself (PC12 viability, MTT) [4]: do not see such toxicity

Inhibition of α-syn aggregation (ThT signal) [3]: inhibited the aggregation completely | D2 functional potency compared to pramipexole [5]: more than 7 fold
SMILES: CCCN(CCc1cc(O)c(CCN(CCC)[C@H]2CCc3nc(N)sc3C2)cc1O)[C@H]1CCc2nc(N)sc2C1 [Compound D-673, 2,5-bis(2-(((S)-2-amino-4,5,6,7-tetrahydrobenzo[d]thiazol-6-yl)(propyl)amino)-ethyl)benzene-1,4-diol]
Toxicity of compound by itself (PC12 viability, MTT) [4]: shows toxicity
